Assay results reported in US20100305201A1 (The Trustees of the University of Pennsylvania, priority 2006, published 2010).

Assays:
[1] = test system: lung carcinoma A549 tumors; test: Tumor shrinkage study, multiple injections; type: in vivo, mice
Method: Tumor shrinkage studies. Human lung carcinoma cell line, A549, was injected subcutaneously at […] per mouse. […] The same injections were repeated after 3, 7, 10, 14, 17 and 21 days. Tumor area (A) was monitored 24 hrs after each injection by measuring two orthogonal dimensions as A=[(L1×L2)/2] for each treatment group. The body weight of the mice was also monitored throughout the experiment.
The tumor shrinkage effect of different carriers was also examined in a multiple-injection experiment. […] TAX in DPBS solution was also used for comparison, with the MTD of 1 mg/kg injected. […] It should be noted here that the weight gaining due to tumor growth (if possible) for all groups was minimal, wherein the largest tumor area gained after 3 weeks was 0.4 cm^2 (FIG. 6A), corresponding to an approximate volume of 0.2 cm^3 (assuming the tumor was spherical in shape). This would have contributed to only 0.2 g of the total weight (assuming the density of tumor is 1 g/ml).
To evaluate the tumor inhibition effect of the different TAX delivery methods in a more quantitative way, the TAX-inhibited tumor growth vs. time plot was fit by applying an exponential model (Simeoni et al., Cancer Res. 64:1094-101 (2004)), incorporating both a tumor growth phase and a tumor shrinkage phase with the TAX addition. The modeling was performed by fit the parameters in the equation (Table 4):
Tumor Area=Σ Ae^t/growth+Be^−t/shrink Equation 7
where t is the time (day), A and tgrowth are constants of the tumor growth phase, and B and tshrink are constants of the TAX-inhibition phase.

[2] = test system: Human lung-derived carcinoma cells A549; test: Cytotoxicity assay (MTT); type: cell-based; conditions: 72 h, sigmoid dose-response fit
Method: Cytotoxicity Assay. TAX-loaded and drug-free micelles at serial dilutions were prepared as above. For comparison, 12 mg/ml TAX in ethanol was mixed with an equal volume of Cremophor® EL followed by sonication for 30 min. The resulting Cremophor EL TAX was diluted with DPBS to obtain desired TAX concentrations. Human lung-derived carcinoma cells A549 were grown in F12 Ham media supplemented with 10% fetal bovine serum and 100 U/ml penicillin and 100 μg/ml streptomycin at 37° C., 5% CO2 to 60-70% confluence. A549 cells (50,000 cell/ml) were seeded in 96-well plates at 5,000 cells per well and cultured for 24 h to allow attachment. […] As control, […] of DPBS was added to cells not exposed to those formulations. After 37° C., 5% CO2 incubation for 72 h, the media were discarded, and 100 μl/well F12 Ham medium and 11 μl/well of 5 mg/ml MTT solution in DPBS was added. The plates were incubated at 37° C. for 3 h and the media were removed again. The intracellular metabolized product MTT formazan was retrieved by addition of 100 μl/well DMSO and incubation at room temperature for 5 min. The plates were read at 550 nm, and the cell viability was calculated as (reading of wells with cells exposed to tested formulations minus the reading of the blank wells) divided by (reading of wells with cells exposed to DPBS minus the reading of the blank wells).
Data Analysis. […]

in vivo = conditions: Nrc nude, mouse
Method: (§1) Nrc nude mice were weighed followed by a single tail vein injection of either empty OCL3 micelles and TAX-loaded micelles in different concentrations at 0.2 ml per mouse. After 24 hours, the mice were weighed again. The “maximum tolerated dose” (MTD) was determined to be, and defined as, the dose that caused the mouse body weight loss<10%.

A549 tumor xenografts = test: Tumor study with single tail-vein injection (Example 3); conditions: one week after single injection, 1 mg kg^−1 in ethanol (MTD)
Method: Briefly, cultured cells were injected subcutaneously onto the backs of nude mice and allowed to grow until they reached a mean size of 0.52 cm^2 (±0.02 em^2). […] Each group consisted of four mice.

[3] = Maximum tolerated dose (MTD) determination; conditions: nude mice, dose that causes 10% weight loss within 24 h (Example 3)
Method: as §1

[4] = exponential model of TAX-inhibited A549 tumor area vs time, injections at MTD

CC(=O)O[C@H]1C(=O)[C@@]2(C)[C@H]([C@H](OC(=O)c3ccccc3)[C@]3(O)C[C@H](OC(=O)[C@H](O)[C@@H](NC(=O)c4ccccc4)c4ccccc4)C(C)=C1C3(C)C)[C@]1(OC(C)=O)CO[C@@H]1C[C@@H]2O [TAX, Paclitaxel]
tumor growth inhibition (in words) ([1]; A549-bearing mice, multiple injections at MTD, 22 days): modest inhibition of tumor growth | A, constant of the tumor growth phase [1, 4]: 0.014 cm^2 | B, constant of the TAX-inhibition phase [1, 4]: 0.178 cm^2 | tgrowth, constant of the tumor growth phase [1, 4]: 1.2 week | tshrink, constant of the TAX-inhibition phase [1, 4]: 8.8 week | IC50 [2]: 321 nM | MTD at 24 h (in vivo): 1 mg/kg | apoptosis in tumor (TUNEL-stained tumor sections) (A549 tumor xenografts): little effect | maximum tolerated dose (MTD) [3]: 1 mg/kg
